Measurements reported in US20260206796A1, “FEED COMPOSITIONS” (Solugen, Inc., priority 2023, published 2026).
Structures can show the parent of a compound that is named as a salt.

Key:
Format in all cases: in vivo
[1] = test system: freshwater shrimp; assay: 10 week shrimp feeding trial with feed additives (phosphate level in tank water, survival); details: for Shrimp survival rate: over 10 weeks of feeding trial, 1.2% additive in diet
Excerpt: To validate if gluconates can be used as an acidulant additives in fish feed to increase shrimp's digestion and reduce phosphate discharge to aquaculture farm water, freshwater shrimp were fed with 1) regular shrimp diet as a control, 2) the same shrimp diet with 1.2% of an FIA, particularly gluconate, as disclosed herein and 3) the shrimp diet with 1.2% sodium citrate as an additive.
Phosphate reduction was equivalently high level to slightly better than citric acid up to 12.5 wt. %. This functionality of reducing phosphate level in discharged water from aquaculture farms is beneficial with respect to environmental regulations as aquaculture farmers are dealing with and the restrictions on the allowed phosphate level in the discharged water waste from aquaculture farms.

[2] = test system: tilapia; assay: 2 month tilapia growth trial on soybean meal-based diets (growth, feed conversion, phosphorus discharge); details: additive 0.5 wt. % in diet; for Fecal phosphorus content compared to control diet: feces after 2 months on diets; for Phosphorus discharge (via urine) in the water compared to soybean based control diet: new clean water sampled after 4 hours
Excerpt: The efficacy of an FIA used as fish feed was investigated. The aim of this study was to assess the efficacy of (i) a feed comprising an FIA of the type disclosed herein (e.g., gluconate) on the growth, phosphorus discharge, biochemical composition and histopathology in tilapia when compared to (ii) a soybean meal-based diet that would have a similar formulation as commercial feeds or (iii) a soybean meal-based diet that includes an FIA of the type disclosed herein or sodium citrate, respectively. Sodium citrate was chosen because this is a competitive chelator and has in the past shown to improve phosphorus utilization/reduce phosphorus discharge in various aquatic animals.
To compare the efficacy of an FIA of the type disclosed herein, a total of 4 isonitrogenous and isolipidic diets were formulated to satisfy the nutritional requirements of tilapia. The crude protein and crude lipid content of the diets were all 32 wt. % and 8 wt. %, respectively. However, the percentages of proteins and supplements were altered to satisfy the aims of this study. Soybean meal was used across all diets. Diet 1 was the control with only soybean meal (cellulose at 0.5 wt. %).
The FIA appeared like packaging peanuts, and thus needed to be ground into a fine powder for the product to be adequately mixed in the diet. All diets were made using a pelleter and the pellets were dried in an oven at 60° C. and stored at −20° C. until use.
A total of 90 all male tilapia were equally distributed among 9 oval polyethylene tanks that ran on a recirculating system. Thus, all the fish shared the same water throughout the 2 month growth trial. After the fish were stocked, of approximately equal size, the tanks were randomly allocated their treatments in triplicate. For the first week, the tilapia were fed the control diet to acclimate them to the experimental conditions and then after a week were hand fed twice daily to apparent satiation on their respective experimental diets.
Throughout the study, excess waste was manually siphoned out of the system and water exchanges were provided weekly. Feed intake was recorded to later calculate the feed conversion ratio. Fish feces were collected, dried and measured for the phosphorus levels after 2 months.
(§1) After 2 months, all the fish were weighed to assess weight gain. Two fish/tank were sampled for liver and intestinal histopathology and the muscle sent out for biochemical analysis. The remaining fish were placed in new clean water and the water was sampled at 4 hours and measured for phosphorus levels mostly derived from urine.

[3] = test system: tilapia; assay: Liver and intestinal histopathology of tilapia after 2 months on the diets; details: for Intestinal histopathology / Liver histopathology / hepatic toxicity: additive 0.5 wt. % in diet, hematoxylin and eosin staining
Protocol: as §1

**Q.** `O=C(O)[C@H](O)[C@@H](O)[C@H](O)[C@H](O)CO` [gluconate] was tested. Which “Phosphate reduction compared to citric acid” value ([1]; 1.2% additive in shrimp diet, vs citric acid additive diet) did it give?
**A.** Its value is “up to 12.5 wt. %”.

**Q.** What about the “Phosphate reduction in tank water compared to control (regular shrimp diet)” value ([1]; 1.2% additive in shrimp diet, vs control diet) of the same compound?
**A.** Its value is “up to 19 wt. %”.

**Q.** What about the Shrimp survival rate [1] of the same compound?
**A.** The Shrimp survival rate was 75%.

**Q.** And the “Fecal phosphorus content compared to control diet” value [2]?
**A.** Its value is “significantly less”.

**Q.** What about the “Phosphorus discharge (via urine) in the water compared to soybean based control diet” value [2] of the same compound?
**A.** The value was “significantly less”.

**Q.** What about the “Overall safety for consumption at the level tested” value ([3]; 0.5 wt. % in diet) of the same compound?
**A.** Its value is “safe for tilapia consumption”.

**Q.** And the Intestinal histopathology [3]?
**A.** The Intestinal histopathology was “no such adverse effects”.

**Q.** What about the “Liver histopathology / hepatic toxicity” value ([3]; listed as FIA) of the same compound?
**A.** The value was “no hepatic toxicity”.

**Q.** What about the “Liver histopathology / hepatic toxicity” value ([3]; listed as sugar oxidation product) of the same compound?
**A.** The value was “normal sinusoid organization with clear central veins and intact and well dispersed pancreatic islets”.

**Q.** What does the source list for `O=C(O)CC(O)(CC(=O)O)C(=O)O` [sodium citrate, reference compound]?
**A.** Shrimp survival rate [1]: 58%; Fecal phosphorus content compared to control diet [2]: significantly less; Phosphorus discharge (via urine) in the water compared to soybean based control diet [2]: significantly less; Intestinal histopathology [3]: inflammation of the intestinal villi and goblet cell hyperplasia; Liver histopathology / hepatic toxicity [3]: varying degrees of hepatic lesions; Liver histopathology / hepatic toxicity ([3]; listed as Sodium citrate): hepatic toxicity based on both mild effects (localized inflammation) to severe (extensive necrosis, vacuolization and hemorrhaging); Intestinal histopathology ([3]; listed as citrate): severe inflammation in goblet cell (gc) and the lamina propria (lp)
